Assay [1] addresses Kappa-type opioid receptor (Homo sapiens, UniProt P41145). The experiment in a line: PDSP Secondary Binding target: OPRK1 - Compounds are tested at 10 uM concentration, plate are incubated at room temperature in the dark for 90 minutes. Reaction are stopped by vacuum filtration onto 0.3% polyethyleneimine soaked filter mats using Filtermate harvester. Scintillation cocktail is then melted onto microwave-dried filters on a hot plate and the radio activity is counted in Microbia counter.

In assay [2] the target is Sigma non-opioid intracellular receptor 1 (Homo sapiens, UniProt Q99720). Kind of assay: PDSP Secondary Binding target: SIGMAR1 - Compounds are tested at 10 uM concentration, plate are incubated at room temperature in the dark for 90 minutes. Reaction are stopped by vacuum filtration onto 0.3% polyethyleneimine soaked filter mats using Filtermate harvester. Scintillation cocktail is then melted onto microwave-dried filters on a hot plate and the radio activity is counted in Microbia counter.

The target in the next assay is Mu-type opioid receptor (Homo sapiens, UniProt P35372). The experiment in a line: PDSP Secondary Binding target: OPRM1 - Compounds are tested at 10 uM concentration, plate are incubated at room temperature in the dark for 90 minutes. Reaction are stopped by vacuum filtration onto 0.3% polyethyleneimine soaked filter mats using Filtermate harvester. Scintillation cocktail is then melted onto microwave-dried filters on a hot plate and the radio activity is counted in Microbia counter.

The target of assay [3] is Delta-type opioid receptor (Homo sapiens, UniProt P41143). The experiment in a line: PDSP Secondary Binding target: OPRD1 - Compounds are tested at 10 uM concentration, plate are incubated at room temperature in the dark for 90 minutes. Reaction are stopped by vacuum filtration onto 0.3% polyethyleneimine soaked filter mats using Filtermate harvester. Scintillation cocktail is then melted onto microwave-dried filters on a hot plate and the radio activity is counted in Microbia counter.

Assay [4] deals with Sodium-dependent dopamine transporter (Homo sapiens, UniProt Q01959). Kind of assay: PDSP Secondary Binding target: SLC6A3 - Compounds are tested at 10 uM concentration, plate are incubated at room temperature in the dark for 90 minutes. Reaction are stopped by vacuum filtration onto 0.3% polyethyleneimine soaked filter mats using Filtermate harvester. Scintillation cocktail is then melted onto microwave-dried filters on a hot plate and the radio activity is counted in Microbia counter.

Assay [5] addresses T1, Muscarinic acetylcholine receptor M5 (Homo sapiens, UniProt P08912).
T1 sequence (P08912 whole entry): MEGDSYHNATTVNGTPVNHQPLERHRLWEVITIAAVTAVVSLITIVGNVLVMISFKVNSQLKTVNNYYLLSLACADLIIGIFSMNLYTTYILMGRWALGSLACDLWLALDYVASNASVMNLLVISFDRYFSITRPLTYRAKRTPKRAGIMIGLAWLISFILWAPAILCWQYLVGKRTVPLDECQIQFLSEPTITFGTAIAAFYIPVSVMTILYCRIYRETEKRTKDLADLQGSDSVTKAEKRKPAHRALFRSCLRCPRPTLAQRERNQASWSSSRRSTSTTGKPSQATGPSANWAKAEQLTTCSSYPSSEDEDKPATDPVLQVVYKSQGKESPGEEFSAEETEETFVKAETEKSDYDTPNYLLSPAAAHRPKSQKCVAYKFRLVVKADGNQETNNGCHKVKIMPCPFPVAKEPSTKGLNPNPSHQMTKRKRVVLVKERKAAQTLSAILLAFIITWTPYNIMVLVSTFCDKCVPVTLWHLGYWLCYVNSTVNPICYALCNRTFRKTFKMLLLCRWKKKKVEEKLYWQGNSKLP
Kind of assay: PDSP Secondary Binding target: CHRM5 - Compounds are tested at 10 uM concentration, plate are incubated at room temperature in the dark for 90 minutes. Reaction are stopped by vacuum filtration onto 0.3% polyethyleneimine soaked filter mats using Filtermate harvester. Scintillation cocktail is then melted onto microwave-dried filters on a hot plate and the radio activity is counted in Microbia counter.

The target of another assay is Histamine H4 receptor (Homo sapiens, UniProt Q9H3N8). The experiment in a line: PDSP Secondary Binding target: HRH4 - Compounds are tested at 10 uM concentration, plate are incubated at room temperature in the dark for 90 minutes. Reaction are stopped by vacuum filtration onto 0.3% polyethyleneimine soaked filter mats using Filtermate harvester. Scintillation cocktail is then melted onto microwave-dried filters on a hot plate and the radio activity is counted in Microbia counter.

Assay [6] deals with T2, Alpha-2A adrenergic receptor (Homo sapiens, UniProt P08913).
T2 sequence (P08913 whole entry): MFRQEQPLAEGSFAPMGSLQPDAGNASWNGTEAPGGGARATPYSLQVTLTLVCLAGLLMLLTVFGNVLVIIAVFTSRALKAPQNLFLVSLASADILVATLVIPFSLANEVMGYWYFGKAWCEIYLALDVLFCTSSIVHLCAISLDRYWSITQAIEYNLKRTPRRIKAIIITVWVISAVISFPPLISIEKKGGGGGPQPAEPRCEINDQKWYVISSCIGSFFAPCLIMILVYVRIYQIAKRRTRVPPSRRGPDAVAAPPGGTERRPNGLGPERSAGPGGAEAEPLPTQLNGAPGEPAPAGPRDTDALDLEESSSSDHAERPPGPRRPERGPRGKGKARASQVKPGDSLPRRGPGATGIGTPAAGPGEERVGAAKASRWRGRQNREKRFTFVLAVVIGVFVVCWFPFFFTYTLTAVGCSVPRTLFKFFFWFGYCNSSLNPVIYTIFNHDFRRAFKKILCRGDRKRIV
The experiment in a line: PDSP Secondary Binding target: ADRA2A - Compounds are tested at 10 uM concentration, plate are incubated at room temperature in the dark for 90 minutes. Reaction are stopped by vacuum filtration onto 0.3% polyethyleneimine soaked filter mats using Filtermate harvester. Scintillation cocktail is then melted onto microwave-dried filters on a hot plate and the radio activity is counted in Microbia counter.

The target of a further assay is Histamine H3 receptor (Homo sapiens, UniProt Q9Y5N1). The experiment in a line: PDSP Secondary Binding target: HRH3 - Compounds are tested at 10 uM concentration, plate are incubated at room temperature in the dark for 90 minutes. Reaction are stopped by vacuum filtration onto 0.3% polyethyleneimine soaked filter mats using Filtermate harvester. Scintillation cocktail is then melted onto microwave-dried filters on a hot plate and the radio activity is counted in Microbia counter.

Assay [7] addresses T3, Alpha-2C adrenergic receptor (Homo sapiens, UniProt P18825).
T3 sequence (P18825 whole entry): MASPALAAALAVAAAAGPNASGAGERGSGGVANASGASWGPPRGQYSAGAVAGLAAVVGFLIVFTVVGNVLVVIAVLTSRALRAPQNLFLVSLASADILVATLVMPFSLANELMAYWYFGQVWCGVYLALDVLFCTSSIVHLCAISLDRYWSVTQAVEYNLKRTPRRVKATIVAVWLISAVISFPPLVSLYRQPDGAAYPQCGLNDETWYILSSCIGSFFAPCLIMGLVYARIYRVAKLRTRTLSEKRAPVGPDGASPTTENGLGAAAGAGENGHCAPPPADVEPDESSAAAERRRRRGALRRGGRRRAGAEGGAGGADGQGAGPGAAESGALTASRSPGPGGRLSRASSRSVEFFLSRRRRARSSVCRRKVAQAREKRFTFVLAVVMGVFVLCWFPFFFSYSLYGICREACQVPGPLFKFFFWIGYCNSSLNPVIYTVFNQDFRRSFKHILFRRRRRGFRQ
Kind of assay: PDSP Secondary Binding target: ADRA2C - Compounds are tested at 10 uM concentration, plate are incubated at room temperature in the dark for 90 minutes. Reaction are stopped by vacuum filtration onto 0.3% polyethyleneimine soaked filter mats using Filtermate harvester. Scintillation cocktail is then melted onto microwave-dried filters on a hot plate and the radio activity is counted in Microbia counter.

The target of assay [8] is T4, Muscarinic acetylcholine receptor M1 (Homo sapiens, UniProt P11229).
T4 sequence (P11229 whole entry): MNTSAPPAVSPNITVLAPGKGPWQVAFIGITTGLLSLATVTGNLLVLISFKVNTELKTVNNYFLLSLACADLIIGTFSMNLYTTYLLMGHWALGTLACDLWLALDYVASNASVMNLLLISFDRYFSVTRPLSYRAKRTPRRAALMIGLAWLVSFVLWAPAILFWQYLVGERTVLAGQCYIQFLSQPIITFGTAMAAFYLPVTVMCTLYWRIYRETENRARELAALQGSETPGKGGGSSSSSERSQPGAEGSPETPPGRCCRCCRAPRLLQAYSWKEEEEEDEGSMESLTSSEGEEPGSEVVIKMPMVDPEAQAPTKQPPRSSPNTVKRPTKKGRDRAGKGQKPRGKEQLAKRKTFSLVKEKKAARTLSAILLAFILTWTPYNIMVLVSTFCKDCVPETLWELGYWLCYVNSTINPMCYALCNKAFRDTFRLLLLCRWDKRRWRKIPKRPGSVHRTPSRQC
The experiment in a line: PDSP Secondary Binding target: CHRM1 - Compounds are tested at 10 uM concentration, plate are incubated at room temperature in the dark for 90 minutes. Reaction are stopped by vacuum filtration onto 0.3% polyethyleneimine soaked filter mats using Filtermate harvester. Scintillation cocktail is then melted onto microwave-dried filters on a hot plate and the radio activity is counted in Microbia counter.

The target in assay [9] is T5, Muscarinic acetylcholine receptor M2 (Homo sapiens, UniProt P08172).
T5 sequence (P08172 whole entry): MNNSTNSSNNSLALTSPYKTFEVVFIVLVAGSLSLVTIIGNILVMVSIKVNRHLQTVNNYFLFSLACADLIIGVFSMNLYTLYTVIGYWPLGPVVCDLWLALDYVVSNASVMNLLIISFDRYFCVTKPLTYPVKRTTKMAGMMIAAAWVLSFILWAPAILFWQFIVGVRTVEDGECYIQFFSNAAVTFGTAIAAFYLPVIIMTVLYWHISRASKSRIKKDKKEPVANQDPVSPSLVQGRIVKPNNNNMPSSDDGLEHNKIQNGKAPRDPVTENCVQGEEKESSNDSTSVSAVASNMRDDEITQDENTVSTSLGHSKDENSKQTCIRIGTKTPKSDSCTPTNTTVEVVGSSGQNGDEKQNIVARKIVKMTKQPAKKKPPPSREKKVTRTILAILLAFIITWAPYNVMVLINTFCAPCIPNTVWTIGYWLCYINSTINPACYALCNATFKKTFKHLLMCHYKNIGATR
Kind of assay: PDSP Secondary Binding target: CHRM2 - Compounds are tested at 10 uM concentration, plate are incubated at room temperature in the dark for 90 minutes. Reaction are stopped by vacuum filtration onto 0.3% polyethyleneimine soaked filter mats using Filtermate harvester. Scintillation cocktail is then melted onto microwave-dried filters on a hot plate and the radio activity is counted in Microbia counter.

Assay [10] has as its target Sodium-dependent noradrenaline transporter (Homo sapiens, UniProt P23975). Kind of assay: PDSP Secondary Binding target: SLC6A2 - Compounds are tested at 10 uM concentration, plate are incubated at room temperature in the dark for 90 minutes. Reaction are stopped by vacuum filtration onto 0.3% polyethyleneimine soaked filter mats using Filtermate harvester. Scintillation cocktail is then melted onto microwave-dried filters on a hot plate and the radio activity is counted in Microbia counter.

In assay [11] the target is Sigma intracellular receptor 2 (Homo sapiens, UniProt Q5BJF2). Kind of assay: PDSP Secondary Binding target: TMEM97 - Compounds are tested at 10 uM concentration, plate are incubated at room temperature in the dark for 90 minutes. Reaction are stopped by vacuum filtration onto 0.3% polyethyleneimine soaked filter mats using Filtermate harvester. Scintillation cocktail is then melted onto microwave-dried filters on a hot plate and the radio activity is counted in Microbia counter.

The target in a further assay is Histamine H1 receptor (Homo sapiens, UniProt P35367). The experiment in a line: PDSP Secondary Binding target: HRH1 - Compounds are tested at 10 uM concentration, plate are incubated at room temperature in the dark for 90 minutes. Reaction are stopped by vacuum filtration onto 0.3% polyethyleneimine soaked filter mats using Filtermate harvester. Scintillation cocktail is then melted onto microwave-dried filters on a hot plate and the radio activity is counted in Microbia counter.

For assay [12], the target named is 5-hydroxytryptamine receptor 2A (Homo sapiens, UniProt P28223). The experiment in a line: PDSP Secondary Binding target: HTR2A - Compounds are tested at 10 uM concentration, plate are incubated at room temperature in the dark for 90 minutes. Reaction are stopped by vacuum filtration onto 0.3% polyethyleneimine soaked filter mats using Filtermate harvester. Scintillation cocktail is then melted onto microwave-dried filters on a hot plate and the radio activity is counted in Microbia counter.

Molecules are shown by their SMILES. Bounds are passed on as bounds.

Chain of Delta-type opioid receptor (P41143 whole entry): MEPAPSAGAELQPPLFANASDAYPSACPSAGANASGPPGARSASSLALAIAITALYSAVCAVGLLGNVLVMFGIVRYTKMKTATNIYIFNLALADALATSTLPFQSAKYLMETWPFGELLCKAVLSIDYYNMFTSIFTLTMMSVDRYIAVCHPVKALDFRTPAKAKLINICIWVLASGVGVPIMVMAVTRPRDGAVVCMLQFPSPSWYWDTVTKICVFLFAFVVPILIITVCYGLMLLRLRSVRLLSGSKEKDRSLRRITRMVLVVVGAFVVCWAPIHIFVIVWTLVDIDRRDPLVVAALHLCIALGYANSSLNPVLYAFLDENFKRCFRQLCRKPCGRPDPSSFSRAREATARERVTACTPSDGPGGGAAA
Chain of Mu-type opioid receptor (P35372 whole entry): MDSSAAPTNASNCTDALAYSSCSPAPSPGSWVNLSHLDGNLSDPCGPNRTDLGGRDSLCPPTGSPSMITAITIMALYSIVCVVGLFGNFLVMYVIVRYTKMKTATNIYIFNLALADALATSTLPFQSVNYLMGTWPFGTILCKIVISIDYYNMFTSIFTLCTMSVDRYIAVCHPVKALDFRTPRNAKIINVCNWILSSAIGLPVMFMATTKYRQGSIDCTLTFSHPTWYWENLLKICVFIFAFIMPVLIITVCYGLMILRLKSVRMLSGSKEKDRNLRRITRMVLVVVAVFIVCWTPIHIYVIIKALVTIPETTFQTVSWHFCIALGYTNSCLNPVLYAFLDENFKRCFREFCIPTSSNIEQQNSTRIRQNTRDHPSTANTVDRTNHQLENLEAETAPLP
Chain of Histamine H4 receptor (Q9H3N8 whole entry): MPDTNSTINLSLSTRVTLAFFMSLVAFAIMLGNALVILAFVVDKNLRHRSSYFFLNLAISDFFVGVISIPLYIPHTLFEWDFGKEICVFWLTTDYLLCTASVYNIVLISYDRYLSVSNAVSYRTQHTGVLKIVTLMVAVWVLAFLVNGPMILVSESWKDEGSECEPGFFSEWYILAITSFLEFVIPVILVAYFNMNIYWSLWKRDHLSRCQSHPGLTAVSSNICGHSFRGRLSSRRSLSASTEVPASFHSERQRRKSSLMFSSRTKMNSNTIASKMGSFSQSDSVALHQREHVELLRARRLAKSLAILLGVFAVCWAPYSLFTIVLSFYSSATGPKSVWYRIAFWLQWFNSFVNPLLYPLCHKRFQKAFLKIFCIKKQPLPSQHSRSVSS
Chain of Histamine H3 receptor (Q9Y5N1 whole entry): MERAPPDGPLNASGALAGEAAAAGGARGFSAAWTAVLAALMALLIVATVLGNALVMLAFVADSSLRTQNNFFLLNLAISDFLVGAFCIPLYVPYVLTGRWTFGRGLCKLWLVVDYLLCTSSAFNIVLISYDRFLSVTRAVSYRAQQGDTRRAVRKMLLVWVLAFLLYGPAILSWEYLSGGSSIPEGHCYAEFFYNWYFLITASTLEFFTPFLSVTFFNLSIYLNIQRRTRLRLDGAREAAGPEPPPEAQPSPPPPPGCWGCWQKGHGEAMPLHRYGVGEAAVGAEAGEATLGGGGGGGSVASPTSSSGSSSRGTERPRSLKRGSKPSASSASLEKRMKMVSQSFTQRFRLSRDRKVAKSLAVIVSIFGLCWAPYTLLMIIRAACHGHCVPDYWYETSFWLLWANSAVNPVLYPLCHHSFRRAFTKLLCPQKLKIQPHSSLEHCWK
Chain of Sodium-dependent dopamine transporter (Q01959 whole entry): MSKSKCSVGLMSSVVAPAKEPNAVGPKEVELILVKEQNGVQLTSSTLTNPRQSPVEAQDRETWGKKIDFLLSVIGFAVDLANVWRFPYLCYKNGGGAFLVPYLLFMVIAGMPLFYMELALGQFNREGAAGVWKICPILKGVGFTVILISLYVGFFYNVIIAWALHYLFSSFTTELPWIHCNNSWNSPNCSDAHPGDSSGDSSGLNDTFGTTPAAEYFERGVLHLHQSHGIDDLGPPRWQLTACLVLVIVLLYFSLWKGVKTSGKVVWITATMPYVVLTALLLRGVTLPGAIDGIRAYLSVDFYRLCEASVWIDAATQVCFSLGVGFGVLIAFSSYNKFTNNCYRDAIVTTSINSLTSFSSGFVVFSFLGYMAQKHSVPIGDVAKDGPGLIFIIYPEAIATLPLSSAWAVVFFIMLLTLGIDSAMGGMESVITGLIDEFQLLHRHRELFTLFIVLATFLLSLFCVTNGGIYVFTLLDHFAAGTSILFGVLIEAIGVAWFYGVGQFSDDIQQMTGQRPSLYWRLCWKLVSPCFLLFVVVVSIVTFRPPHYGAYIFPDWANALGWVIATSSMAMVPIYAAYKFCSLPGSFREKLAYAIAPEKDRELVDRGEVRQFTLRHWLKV
Chain of Sigma intracellular receptor 2 (Q5BJF2 whole entry): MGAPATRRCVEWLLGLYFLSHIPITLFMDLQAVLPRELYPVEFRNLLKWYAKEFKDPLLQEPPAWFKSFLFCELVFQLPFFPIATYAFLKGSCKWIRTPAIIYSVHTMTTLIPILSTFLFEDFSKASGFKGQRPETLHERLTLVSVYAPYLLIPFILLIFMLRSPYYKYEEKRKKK
Chain of Sodium-dependent noradrenaline transporter (P23975 whole entry): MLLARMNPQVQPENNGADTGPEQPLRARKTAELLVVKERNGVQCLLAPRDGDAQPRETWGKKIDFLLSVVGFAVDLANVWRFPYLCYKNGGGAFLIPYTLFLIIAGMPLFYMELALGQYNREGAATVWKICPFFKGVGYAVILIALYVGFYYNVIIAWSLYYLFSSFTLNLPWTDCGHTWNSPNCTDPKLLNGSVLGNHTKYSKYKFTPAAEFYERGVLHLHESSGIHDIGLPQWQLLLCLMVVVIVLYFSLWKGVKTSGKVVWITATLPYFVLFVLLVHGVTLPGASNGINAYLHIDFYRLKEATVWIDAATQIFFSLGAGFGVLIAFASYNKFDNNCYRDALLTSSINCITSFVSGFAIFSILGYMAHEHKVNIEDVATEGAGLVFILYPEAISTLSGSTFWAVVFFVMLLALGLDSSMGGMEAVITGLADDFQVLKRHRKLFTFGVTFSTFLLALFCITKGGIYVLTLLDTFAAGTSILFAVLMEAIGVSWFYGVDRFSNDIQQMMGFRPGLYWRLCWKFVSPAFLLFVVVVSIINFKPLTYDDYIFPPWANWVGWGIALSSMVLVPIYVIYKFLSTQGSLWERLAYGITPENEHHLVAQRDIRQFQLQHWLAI
Chain of Histamine H1 receptor (P35367 whole entry): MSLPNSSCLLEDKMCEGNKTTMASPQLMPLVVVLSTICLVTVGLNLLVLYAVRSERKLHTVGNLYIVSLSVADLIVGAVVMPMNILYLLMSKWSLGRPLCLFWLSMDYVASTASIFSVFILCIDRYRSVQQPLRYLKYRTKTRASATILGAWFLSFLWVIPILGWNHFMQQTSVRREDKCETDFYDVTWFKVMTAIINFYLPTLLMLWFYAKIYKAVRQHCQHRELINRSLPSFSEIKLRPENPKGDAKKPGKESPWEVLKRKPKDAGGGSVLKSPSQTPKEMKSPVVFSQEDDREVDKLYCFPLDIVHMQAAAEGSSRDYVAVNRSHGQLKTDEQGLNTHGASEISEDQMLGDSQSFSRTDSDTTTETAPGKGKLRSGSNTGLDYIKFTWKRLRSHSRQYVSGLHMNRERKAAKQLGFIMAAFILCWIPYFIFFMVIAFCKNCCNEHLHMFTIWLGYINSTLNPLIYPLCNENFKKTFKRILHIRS
Chain of 5-hydroxytryptamine receptor 2A (P28223 whole entry): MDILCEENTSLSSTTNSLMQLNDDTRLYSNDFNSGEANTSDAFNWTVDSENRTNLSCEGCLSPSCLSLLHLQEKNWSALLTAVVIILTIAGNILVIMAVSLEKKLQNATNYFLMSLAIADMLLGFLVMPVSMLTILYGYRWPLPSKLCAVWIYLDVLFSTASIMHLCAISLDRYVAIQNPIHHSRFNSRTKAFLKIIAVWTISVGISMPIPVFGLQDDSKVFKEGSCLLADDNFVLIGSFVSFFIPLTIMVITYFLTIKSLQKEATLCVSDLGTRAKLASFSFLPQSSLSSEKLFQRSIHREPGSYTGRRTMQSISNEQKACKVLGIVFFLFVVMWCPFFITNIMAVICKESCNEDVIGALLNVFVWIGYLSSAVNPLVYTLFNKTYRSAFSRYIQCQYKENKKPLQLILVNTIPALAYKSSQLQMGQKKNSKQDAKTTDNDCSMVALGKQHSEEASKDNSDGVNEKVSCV
Chain of Kappa-type opioid receptor (P41145 whole entry): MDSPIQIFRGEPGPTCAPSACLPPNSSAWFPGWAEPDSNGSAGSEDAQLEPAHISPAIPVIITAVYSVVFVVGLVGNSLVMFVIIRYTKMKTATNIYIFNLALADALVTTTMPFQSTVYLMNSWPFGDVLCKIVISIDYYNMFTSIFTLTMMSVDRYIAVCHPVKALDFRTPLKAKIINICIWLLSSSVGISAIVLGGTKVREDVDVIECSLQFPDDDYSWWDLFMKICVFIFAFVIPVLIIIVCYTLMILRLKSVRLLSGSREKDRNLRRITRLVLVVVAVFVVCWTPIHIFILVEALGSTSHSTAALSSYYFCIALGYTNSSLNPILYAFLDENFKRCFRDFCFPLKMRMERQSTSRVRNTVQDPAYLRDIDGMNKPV
Chain of Sigma non-opioid intracellular receptor 1 (Q99720 whole entry): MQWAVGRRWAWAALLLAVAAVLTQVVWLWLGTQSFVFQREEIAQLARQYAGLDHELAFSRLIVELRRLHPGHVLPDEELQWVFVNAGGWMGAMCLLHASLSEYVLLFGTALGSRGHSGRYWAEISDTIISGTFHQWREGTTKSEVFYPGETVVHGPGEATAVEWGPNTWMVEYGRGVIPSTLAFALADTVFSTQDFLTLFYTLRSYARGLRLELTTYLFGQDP

As usually defined, the Ki is the dissociation constant of the complex between target and ligand, obtained from inhibition or displacement. For the compound `C=CCN1C[C@H](C)N([C@H](c2ccc(C(=O)N(CC)CC)cc2)c2cccc(O)c2)C[C@H]1C`, the Ki in assay [1] is 23.3 nM; in [2], 108 nM; at Mu-type opioid receptor, 14.7 nM; in assay [3], 3.85 nM.

Turning to `N#Cc1c(N)nc(SCc2csc(-c3ccc(Cl)cc3)n2)c(C#N)c1-c1ccc(OCCO)cc1` [CAPADENOSON], the values for the Ki in assay [4] and in [3] were 3190 nM and > 10000 nM, respectively.

For `CN(C(=O)Cc1ccc(Cl)c(Cl)c1)C(CN1CCCC1)c1cccc(OCC(=O)O)c1` (stereo not drawn), the Ki in assay [5] is 5910 nM; at Mu-type opioid receptor, 323 nM; in [3], 411 nM.

As for `C[C@@H](N)Cc1c[nH]cn1`, the Ki on Histamine H4 receptor was 169 nM.

Turning to `N=C(N)SCCc1cnc[nH]1`, the Ki in assay [6] came to 4040 nM; at Histamine H3 receptor, 0.632 nM; at Histamine H4 receptor, 4.86 nM.

`c1cc(CN2CCCNCCNCCCNCC2)ccc1CN1CCCNCCNCCCNCC1` [PLERIXAFOR]: the Ki in [4] was > 10000 nM; in assay [7], 1780 nM; at Histamine H3 receptor, 2.74 nM; in assay [8], 804 nM; in assay [9] it was 1010 nM.

For `Cc1c(C2=CCN(C(=O)N(C)C(C)C)CC2)nnn1-c1cccnc1F`, the Ki in assay [10] was > 10000 nM; in assay [11] it was 8120 nM; at Histamine H1 receptor it was 1450 nM; in assay [12] it was > 10000 nM; in [3], > 10000 nM.

Source of the values: ChEMBL document CHEMBL5442175, “EUbOPEN Chemogenomics Library - PDSP Secondary Binding” (2024).
